Reference: patent US20090048285A1, “Pyrrolopyridines Useful in the Treatment of Inflammation” (priority 2005, published 2009)

Target: T1, mPGES-1 (Homo sapiens, UniProt O14684)
T1 construct: made in house; host or cells: E. coli (membrane fraction)
T1 sequence (O14684 1-152): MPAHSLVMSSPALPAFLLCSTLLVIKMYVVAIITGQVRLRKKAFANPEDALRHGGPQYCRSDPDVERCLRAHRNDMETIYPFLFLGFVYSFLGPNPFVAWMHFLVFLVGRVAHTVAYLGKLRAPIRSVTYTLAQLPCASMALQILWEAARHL
Test: mPGES-1 assay: conversion of PGH2 to PGE2, HPLC analysis
Format: biochemical
Settings: mPGES-1 expressed in E. coli; 25 min preincubation with inhibitor, 60 s with PGH2, room temperature
Method: In the assay in PGES-1 catalyses the reaction where the substrate PGH2 is converted to PGE2. mPGES-1 is expressed in E. coli and the membrane fraction is dissolved in 20 mM NaPi-buffer pH 8.0 and stored at −80° C. In the assay mPGES-1 is dissolved in 0.1M KPi-buffer pH 7.35 with 2.5 mM glutathione. The stop solution consists of H2O/MeCN (7/3), containing FeCl2 (25 mM) and HCl (0.15 M). The assay is performed at room temperature in 96-well plates. Analysis of the amount of PGE2 is performed with reversed phase HPLC (Waters 2795 equipped with a 3.9×150 mm C18 column). The mobile phase consists of H2O/MeCN (7/3), containing TFA (0.056%), and absorbance is measured at 195 nm with a Waters 2487 LTV-detector.
The following is added chronologically to each well: • 1. 100 μL mPGES-1 in KPi-buffer with glutathione. Total protein concentration: 0.02 mg/mL. • 2. 1 μL inhibitor in DMSO. Incubation of the plate at room temperature for 25 minutes. • 3. 4 μL of a 0.25 mM PGH2 solution. Incubation of the plate at room temperature for 60 seconds. • 4. 100 μL stop solution. • 180 μL per sample is analyzed with HPLC.

| Structure (SMILES) | IC50 [nM] |
| --- | --- |
| CC(C)Oc1ccc(-n2c(C(=O)O)cc3cc(Oc4cccc(C(F)(F)F)c4)ncc32)cc1 [Example 1, 1-(4-Isopropoxyphenyl)-5-(3-trifluoromethylphenoxy)pyrrolo[2,3-c]pyridine-2-carboxylic Acid] | 2300 |
| CC(C)Oc1ccc(-n2c(C(=O)O)cc3c(-c4ccc(C(F)(F)F)cc4)nc(Cl)cc32)cc1 [Example 3, 6-Chloro-1-(4-isopropoxyphenyl)-4-(4-trifluoromethylphenyl)pyrrolo[3,2-c]pyridine-2-carboxylic acid] | 750 |
